According to patent publication US8822469B2, “Pyrrolo[2,3-B]pyrazines useful as inhibitors of ATR kinase” (Vertex Pharmaceuticals Incorporated, priority 2011, dated 2014):

Molecular target: T1, full-length ATR (Homo sapiens, UniProt Q13535)
T1 construct: Assays were carried out at 25° C. in the presence of 5 nM full-length ATR
Assay: ATR Inhibition Assay (radioactive-phosphate incorporation)
Type: biochemical
Details: Ki(app); 5 nM full-length ATR, 10 μM [γ-33P]ATP, 800 μM target peptide, 25° C.
Experimental: Compounds were screened for their ability to inhibit ATR kinase using a radioactive-phosphate incorporation assay. Assays were carried out in a mixture of 50 mM Tris/HCl (pH 7.5), 10 mM MgCl2 and 1 mM DTT. Final substrate concentrations were 10 μM [γ-33P]ATP (3mCi 33P ATP/mmol ATP, Perkin Elmer) and 800 μM target peptide (ASELPASQPQPFSAKKK).
Assays were carried out at 25° C. in the presence of 5 nM full-length ATR. An assay stock buffer solution was prepared containing all of the reagents listed above, with the exception of ATP and the test compound of interest. 13.5 μL of the stock solution was placed in a 96 well plate followed by addition of 2 μL of DMSO stock containing serial dilutions of the test compound (typically starting from a final concentration of 15 μM with 3-fold serial dilutions) in duplicate (final DMSO concentration 7%). The plate was pre-incubated for 10 minutes at 25° C. and the reaction initiated by addition of 15 μL [γ-33P]ATP (final concentration 10 μM).
The reaction was stopped after […] by the addition of 30 μL 0.1M phosphoric acid containing 2 mM ATP. A multiscreen phosphocellulose filter 96-well plate (Millipore, Cat no. MAPHN0B50) was pretreated with 100 μL 0.2M phosphoric acid prior to the addition of 45 μL of the stopped assay mixture. The plate was washed with 5×200 μL 0.2M phosphoric acid. After drying, 100 μL Optiphase ‘SuperMix’ liquid scintillation cocktail (Perkin Elmer) was added to the well prior to scintillation counting (1450 Microbeta Liquid Scintillation Counter, Wallac).
After removing mean background values for all of the data points, Ki(app) data were calculated from non-linear regression analysis of the initial rate data using the Prism software package (GraphPad Prism version 3.0cx for Macintosh, GraphPad Software, San Diego Calif., USA).

T1 sequence (Q13535 whole entry): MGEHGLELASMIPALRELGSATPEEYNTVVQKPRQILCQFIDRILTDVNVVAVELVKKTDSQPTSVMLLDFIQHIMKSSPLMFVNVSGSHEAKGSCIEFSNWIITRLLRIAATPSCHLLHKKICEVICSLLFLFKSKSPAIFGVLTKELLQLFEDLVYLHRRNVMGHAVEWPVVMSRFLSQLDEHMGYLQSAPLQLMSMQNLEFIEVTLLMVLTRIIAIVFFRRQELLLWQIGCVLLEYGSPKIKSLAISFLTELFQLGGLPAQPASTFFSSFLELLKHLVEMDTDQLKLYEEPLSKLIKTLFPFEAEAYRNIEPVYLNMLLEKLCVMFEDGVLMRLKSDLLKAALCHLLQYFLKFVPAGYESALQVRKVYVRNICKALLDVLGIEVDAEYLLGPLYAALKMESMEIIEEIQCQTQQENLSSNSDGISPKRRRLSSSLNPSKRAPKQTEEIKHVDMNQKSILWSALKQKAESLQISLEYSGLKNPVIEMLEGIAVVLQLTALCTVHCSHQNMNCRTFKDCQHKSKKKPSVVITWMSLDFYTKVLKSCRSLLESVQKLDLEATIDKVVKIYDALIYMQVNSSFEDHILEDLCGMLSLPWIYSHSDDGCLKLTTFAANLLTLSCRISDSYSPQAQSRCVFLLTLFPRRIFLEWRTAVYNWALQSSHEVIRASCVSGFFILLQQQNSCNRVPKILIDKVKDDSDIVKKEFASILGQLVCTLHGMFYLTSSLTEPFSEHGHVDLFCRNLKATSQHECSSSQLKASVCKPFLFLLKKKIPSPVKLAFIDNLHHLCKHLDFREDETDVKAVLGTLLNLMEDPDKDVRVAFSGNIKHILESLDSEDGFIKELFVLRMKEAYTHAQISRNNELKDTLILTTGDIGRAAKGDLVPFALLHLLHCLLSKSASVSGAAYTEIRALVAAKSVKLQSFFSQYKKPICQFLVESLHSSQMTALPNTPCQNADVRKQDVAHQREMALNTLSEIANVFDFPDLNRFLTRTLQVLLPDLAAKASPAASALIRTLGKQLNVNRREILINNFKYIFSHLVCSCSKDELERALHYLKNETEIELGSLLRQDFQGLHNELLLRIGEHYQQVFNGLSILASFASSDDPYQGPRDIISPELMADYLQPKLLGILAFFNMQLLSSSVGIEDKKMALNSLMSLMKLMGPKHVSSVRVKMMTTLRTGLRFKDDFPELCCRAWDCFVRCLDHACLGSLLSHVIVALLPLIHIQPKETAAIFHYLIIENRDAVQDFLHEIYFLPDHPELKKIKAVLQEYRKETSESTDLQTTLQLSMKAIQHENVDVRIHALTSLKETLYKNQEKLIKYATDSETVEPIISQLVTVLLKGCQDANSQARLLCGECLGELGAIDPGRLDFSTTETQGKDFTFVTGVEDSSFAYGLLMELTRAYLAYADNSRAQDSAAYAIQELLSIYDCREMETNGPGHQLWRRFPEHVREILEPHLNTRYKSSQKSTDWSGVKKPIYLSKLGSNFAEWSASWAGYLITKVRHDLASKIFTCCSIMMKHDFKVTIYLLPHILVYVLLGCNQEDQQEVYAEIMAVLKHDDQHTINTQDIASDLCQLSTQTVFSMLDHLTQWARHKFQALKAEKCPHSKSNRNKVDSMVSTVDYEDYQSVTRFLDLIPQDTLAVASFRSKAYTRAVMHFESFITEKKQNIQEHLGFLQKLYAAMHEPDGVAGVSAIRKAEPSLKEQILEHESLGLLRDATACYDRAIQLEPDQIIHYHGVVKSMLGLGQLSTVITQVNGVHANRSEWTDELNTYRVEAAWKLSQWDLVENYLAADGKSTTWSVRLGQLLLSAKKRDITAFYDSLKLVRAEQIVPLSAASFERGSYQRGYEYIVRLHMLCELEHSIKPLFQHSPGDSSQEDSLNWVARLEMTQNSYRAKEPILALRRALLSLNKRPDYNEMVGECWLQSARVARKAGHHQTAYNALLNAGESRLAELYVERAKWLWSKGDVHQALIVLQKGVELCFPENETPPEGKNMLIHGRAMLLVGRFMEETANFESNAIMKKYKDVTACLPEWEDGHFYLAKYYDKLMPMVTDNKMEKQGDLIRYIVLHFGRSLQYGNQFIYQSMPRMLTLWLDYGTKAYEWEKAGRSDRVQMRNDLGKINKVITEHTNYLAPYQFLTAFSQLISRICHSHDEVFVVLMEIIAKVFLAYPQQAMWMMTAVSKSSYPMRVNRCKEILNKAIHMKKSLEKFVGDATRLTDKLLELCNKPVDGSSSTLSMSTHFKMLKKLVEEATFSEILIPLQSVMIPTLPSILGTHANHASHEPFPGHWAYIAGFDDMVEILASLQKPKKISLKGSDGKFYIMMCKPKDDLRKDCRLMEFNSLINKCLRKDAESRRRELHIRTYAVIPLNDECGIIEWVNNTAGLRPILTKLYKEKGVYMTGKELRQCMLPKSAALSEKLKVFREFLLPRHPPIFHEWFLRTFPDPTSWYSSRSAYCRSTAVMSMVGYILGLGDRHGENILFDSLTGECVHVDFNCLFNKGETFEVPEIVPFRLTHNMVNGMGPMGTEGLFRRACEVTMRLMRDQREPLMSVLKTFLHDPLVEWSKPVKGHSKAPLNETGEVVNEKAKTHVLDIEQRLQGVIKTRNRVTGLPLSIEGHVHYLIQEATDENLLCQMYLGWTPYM

Row | Compound | Ki
1 | CC(C)S(=O)(=O)c1ccc(-c2cnc3[nH]cc(NC(=O)c4cncs4)c3n2)cc1 [Compound I-34, N-[2-(4-isopropylsulfonylphenyl)-5H-pyrrolo[2,3-b]pyrazin-7-yl]thiazole-5-carboxamide] | 10 to 100 nM
2 | CC(C)S(=O)(=O)c1ccc(-c2cnc3[nH]cc(NC(=O)C4CCNCC4)c3n2)cc1 [Compound I-35, N-[2-(4-isopropylsulfonylphenyl)-5H-pyrrolo[2,3-b]pyrazin-7-yl]piperidine-4-carboxamide] | 10 to 100 nM
3 | CC(C)S(=O)(=O)c1ccc(-c2cnc3[nH]cc(NC(=O)C4CCOC4)c3n2)cc1 (stereo not shown) [Compound I-36, N-[2-(4-isopropylsulfonylphenyl)-5H-pyrrolo[2,3-b]pyrazin-7-yl]tetrahydrofuran-3-carboxamide] | 100 to 500 nM
4 | CC(C)S(=O)(=O)c1ccc(-c2cnc3[nH]cc(NC(=O)c4ccccn4)c3n2)cc1 [Compound I-40, N-[2-(4-isopropylsulfonylphenyl)-5H-pyrrolo[2,3-b]pyrazin-7-yl]pyridine-2-carboxamide] | 10 to 100 nM
5 | CC(C)S(=O)(=O)c1ccc(-c2cnc3[nH]cc(NC(=O)c4ccc(N5CC[C@@H](N)C5)cc4)c3n2)cc1 [Compound I-41, 4-[(3R)-3-aminopyrrolidin-1-yl]-N-[2-(4-isopropylsulfonylphenyl)-5H-pyrrolo[2,3-b]pyrazin-7-yl]benzamide] | ≤ 10 nM

Next, values leading:

Row | Ki | Compound
6 | 10 to 100 nM | CC(C)S(=O)(=O)c1ccc(-c2cnc3[nH]cc(NC(=O)CC#N)c3n2)cc1 [Compound I-37, 2-cyano-N-[2-(4-isopropylsulfonylphenyl)-5H-pyrrolo[2,3-b]pyrazin-7-yl]acetamide]
7 | 10 to 100 nM | CC(C)S(=O)(=O)c1ccc(-c2cnc3[nH]cc(NC(=O)Cc4nnn[nH]4)c3n2)cc1 [Compound I-38, N-[2-(4-isopropylsulfonylphenyl)-5H-pyrrolo[2,3-b]pyrazin-7-yl]-2-(1H-tetrazol-5-yl)acetamide]
8 | 100 to 500 nM | CC(C)S(=O)(=O)c1ccc(-c2cnc3[nH]cc(NC(=O)COc4ccccc4)c3n2)cc1 [Compound I-39, N-[2-(4-isopropylsulfonylphenyl)-5H-pyrrolo[2,3-b]pyrazin-7-yl]-2-phenoxy-acetamide]
9 | 10 to 100 nM | CC(C)S(=O)(=O)c1ccc(-c2cnc3[nH]cc(NC(=O)c4ccc(N5CCC[C@H](N)C5)cc4)c3n2)cc1 [Compound I-42, 4-[(3S)-3-amino-1-piperidyl]-N-[2-(4-isopropylsulfonylphenyl)-5H-pyrrolo[2,3-b]pyrazin-7-yl]benzamide]
10 | 10 to 100 nM | CC(C)S(=O)(=O)c1ccc(-c2cnc3[nH]cc(NC(=O)Nc4ccccc4)c3n2)cc1 [Compound I-43, 1-[2-(4-isopropylsulfonylphenyl)-5H-pyrrolo[2,3-b]pyrazin-7-yl]-3-phenyl-urea]
